Source: paper PMC7160333, “Physiological Role of Glutamate Dehydrogenase in Cancer Cells” (Frontiers in Oncology, 2020)
Read-outs that look alike come from different tables or passages of the source.

Columns and labels:
MCF-7 cells [1] = tested on: MCF-7 cells; design: method as in PMID 28303961; settings: MCF-7, ammonium 2–5 mM; cited from earlier work
MDA-MB-231 MCTS = experiment: MDA-MB-231 multicellular tumor spheroid (MCTS) growth with ammonium; type: cell-based, human
Method: (§1) After 5 days, the culture medium was refreshed, and the MCTSs formed were placed under slow orbital shaking (20–50 rpm) at 37°C and 95% air/5% CO2. […] The spheroid growth was determined at the indicated times by measuring MCTS diameter with a calibrated reticule (1/10 mm) in an inverted phase contrast microscope (Zeiss, Thornwood, NY, USA) ([86]).

RLM GDH1 = RLM GDH1 (Rattus norvegicus, UniProt P10860); experiment: GDH reverse (aminating) reaction activity in rat liver mitochondria (RLM); type: biochemical; settings: RLM; for K0.5 NH4+: reverse reaction, Hill equation; for Km: read-out: Km NH4+
Method: (§2) Tightly coupled mitochondria were isolated from fed-rat liver (RLM) and AS-30D cells (HepM) as described elsewhere ([89], [90]). […] The resulting mitochondrial fractions were resuspended at 30 to 80 mg protein/mL in SHE buffer with 1 mM PMSF, 1 mM EDTA, 5 mM DTT, and 10% glycerol, and stored at −70°C until use for determination of enzyme activity and Western blotting.

[2] = tested on: recombinant human GDH isoforms (GDH1 and GDH2), bovine liver GDH, Ox brain GDH, dogfish liver GDH, rat brain GDH, and bovine brain GDH isoforms; design: method as in PMID 4381532, PMID 7588764, PMID 17924438, PMID 23420347, PMID 7190024; settings: pH range of 7.4–8.7; cited from earlier work
3T3 fibroblasts = settings: for Duplication time: 3T3, 2-D culture, n = 3; for Maximal cellular densities: reached at day 5
Method: (§3) All cancer and non-cancer cell lines used were purchased from ATCC and cultured in DMEM (Sigma-Aldrich) supplemented with 10% fetal bovine serum (Biowest, Nuaillé, France) and 10,000 U penicillin/streptomycin (Sigma-Aldrich) and placed under a humidified atmosphere of 5% CO2/95% air at 37°C.
(§4) Cell growth was followed by counting cellular density every 24 h during 7 to 8 days. […] The duplication time was determined by using the following equation: n=1/[3.32(logNF-logNI)]/(tF-tI) , where NF represents the number of cultured cells at the end of the exponential growth phase; NI represents the number of cells at the beginning of the growth curve; tF is the final time at which cells were harvested, and tI is the initial culture time. The specific growth rate μ was calculated from the slope of a semilogarithmic plot of cell densities in the exponential growth phase vs. time ([88]).

DU145 cells = settings: for Duplication time: DU145, 2-D culture, n = 3; for Maximal cellular densities: reached at day 5
Method: as §3, §4

HepM GDH1 = HepM GDH1 (Rattus norvegicus, UniProt P10860); experiment: GDH reverse (aminating) reaction activity in hepatoma mitochondria (HepM); type: biochemical; settings: HepM; for K0.5 NH4+: reverse reaction, Hill equation; for Km: read-out: Km NH4+
Method: as §2

cancer cells = experiment: Viability by trypan blue assay in 2-D cultures with ammonium; type: cell-based, human; settings: all culture conditions
HeLa cells = settings: for Duplication time: 2-D culture, n = 3; for Maximal cellular densities: reached at day 4
Method: as §3, §4

MDA-MB-231 cells = settings: for Duplication time: MDA-MB-231, 2-D culture, n = 3
Method: as §3, §4

SiHa cells = settings: for Duplication time: 2-D culture, n = 3; for Maximal cellular densities: reached at day 6
Method: as §3, §4

Colo 205 cells = settings: for Duplication time: Colo 205, 2-D culture, n = 3; for Maximal cellular densities: reached at day 6
Method: as §3, §4

HCT116 cells = settings: for Duplication time: HCT116, 2-D culture, n = 3; for Maximal cellular densities: reached at day 7
Method: as §3, §4

MCF-7 cells [3] = settings: for Duplication time: MCF-7, 2-D culture, n = 3; for Maximal cellular densities: reached at day 6
Method: as §3, §4

GDH in HepM and RLM = GDH in HepM and RLM (Rattus norvegicus, UniProt P10860); experiment: GDH reverse reaction kinetics, summary statements for HepM and RLM; type: biochemical
Method: The decrease in the absorbance at 340 nm was followed for several minutes (~10 min) to allow for full development of the pronounced enzyme hysteretic behavior, although the initial signal decrease (1–3 min) was taken to calculate the GDH rates. The protein concentration ranges used for each mitochondrial type were well within the linearity range of enzyme activity. To calculate the kinetic parameters, the experimental data were fitted by non-linear regression analysis to the Hill or MWC equation, using the Microcal Origin 5.0 software (OriginLab, Northampton, MA, USA).

GDH = settings: GDH1, reported values; cited from earlier work
[4] = tested on: total GDH activity (GDH1 + GDH2) in HeLa and MCF-7 cells; settings: 5 mM NH4Cl in culture medium, 5 days, data not shown
HeLa MCTS = experiment: HeLa multicellular tumor spheroid (MCTS) growth with ammonium; type: cell-based, human
Method: as §1

A549 cells = settings: for Duplication time: A549, 2-D culture, n = 3; for Maximal cellular densities: reached at day 6
Method: as §3, §4

PC3 cells = settings: for Maximal cellular densities: reached at day 5
Method: as §3, §4

[5] = pH 7.2, MWC equation, GTP inhibition, saturating ADP
[6] = pH 7.5, MWC equation, GTP inhibition, saturating ADP

Sequence of HepM GDH1 (P10860 54-558): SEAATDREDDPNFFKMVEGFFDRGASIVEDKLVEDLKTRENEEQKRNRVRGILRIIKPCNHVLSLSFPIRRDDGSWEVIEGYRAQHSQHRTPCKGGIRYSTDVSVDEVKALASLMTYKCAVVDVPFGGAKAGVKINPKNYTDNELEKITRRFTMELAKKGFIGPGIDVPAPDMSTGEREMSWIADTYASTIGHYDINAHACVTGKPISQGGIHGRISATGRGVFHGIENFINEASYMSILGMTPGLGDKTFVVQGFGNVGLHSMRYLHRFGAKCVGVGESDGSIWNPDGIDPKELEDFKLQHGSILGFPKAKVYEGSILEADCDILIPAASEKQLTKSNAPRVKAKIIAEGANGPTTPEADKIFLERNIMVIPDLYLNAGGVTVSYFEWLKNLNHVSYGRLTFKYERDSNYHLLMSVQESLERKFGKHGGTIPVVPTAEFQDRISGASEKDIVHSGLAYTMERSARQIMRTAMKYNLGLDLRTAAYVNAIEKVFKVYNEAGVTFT
Sequence of RLM GDH1 (P10860 54-558): as above
Sequence of GDH in HepM and RLM (P10860 54-558): as above

Cl.N [NH4Cl, Ammonium chloride]
Cell proliferation (MCF-7 cells [1]): only slightly stimulated | MCTS growth (diameter) (MDA-MB-231 MCTS; ammonium 10 mM): clearly toxic | MCTS growth (diameter) (MDA-MB-231 MCTS; ammonium 0.5–5 mM): promoted enhanced growth rates | K0.5 NH4+ (RLM GDH1; pH 7.2, 37°C): 23.9 ± 3.7 mM | nH (Hill coefficient) for NH4+ (RLM GDH1; pH 7.2, Hill equation): 1.97 ± 0.8 | Km (RLM GDH1; [5]): 8.5 ± 4.5 mM | Km (RLM GDH1; pH 7.2, MWC equation, with ADP): 18 ± 11 mM | K0.5 NH4+ (RLM GDH1; pH 7.5, 37°C): 18.2 ± 5.9 mM | nH (Hill coefficient) for NH4+ (RLM GDH1; pH 7.5, Hill equation): 1.4 ± 0.4 | Km (RLM GDH1; [6]): 5.6 ± 3.6 mM | Km (RLM GDH1; pH 7.5, MWC equation, with ADP): 8.8 ± 4.1 mM | K0.5 NH4+ [2]: 6.5 to 80 mM | Duplication time (3T3 fibroblasts; +5 mM NH4Cl): 46 ± 2 h | Duplication time (3T3 fibroblasts; +10 mM NH4Cl): 60 ± 1 h | Maximal cellular densities (3T3 fibroblasts; 3T3, +5 mM NH4Cl): 45 ± 3 ×10^3 | Maximal cellular densities (3T3 fibroblasts; 3T3, +10 mM NH4Cl): 36 ± 2 ×10^3 | IC50 (3T3 fibroblasts; read-out: IC50 for decrease of growth, mouse 3T3 fibroblasts, data not shown): ~1000 µM | Proliferation rates (DU145 cells; DU145, 0.1 and 0.5 mM NH4Cl, data not shown): increased proliferation rates | Duplication time (DU145 cells; +5 mM NH4Cl): 32 ± 2 h | Duplication time (DU145 cells; +10 mM NH4Cl): 35 ± 3 h | Maximal cellular densities (DU145 cells; DU145, +5 mM NH4Cl): 92 ± 6 ×10^3 | Maximal cellular densities (DU145 cells; DU145, +10 mM NH4Cl): 85 ± 4 ×10^3 | K0.5 NH4+ (HepM GDH1; pH 7.2, 37°C): 25.2 ± 8 mM | nH (Hill coefficient) for NH4+ (HepM GDH1; pH 7.2, Hill equation): 2.12 ± 0.7 | Km (HepM GDH1; [5]): 12 ± 2.6 mM | Km (HepM GDH1; pH 7.2, MWC equation, with ADP): 11.2 ± 3.5 mM | K0.5 NH4+ (HepM GDH1; pH 7.5, 37°C): 26.8 ± 7.2 mM | nH (Hill coefficient) for NH4+ (HepM GDH1; pH 7.5, Hill equation): 1.5 ± 0.7 | Km (HepM GDH1; [6]): 10.3 ± 2.6 mM | Km (HepM GDH1; pH 7.5, MWC equation, with ADP): 9.3 ± 7.2 mM | Viability (cancer cells): higher than 90% | Duplication time (HeLa cells; +5 mM NH4Cl): 25.5 ± 2 h | Duplication time (HeLa cells; +10 mM NH4Cl): 24 ± 2 h | Maximal cellular densities (HeLa cells; +5 mM NH4Cl): 153 ± 13 ×10^3 | Maximal cellular densities (HeLa cells; +10 mM NH4Cl): 163 ± 9 ×10^3 | Rescue of growth after glutamine removal from the culture medium (HeLa cells; NH4Cl 1–10 mM, data not shown): did not rescue their growth | Duplication time (MDA-MB-231 cells; +5 mM NH4Cl): 26 ± 3 h | Duplication time (MDA-MB-231 cells; +10 mM NH4Cl): 25 ± 1 h | Maximal cellular densities (MDA-MB-231 cells; MDA-MB-231, +5 mM NH4Cl, reached at day 4): 145 ± 13 ×10^3 | Rescue of growth after glutamine removal from the culture medium (MDA-MB-231 cells; MDA-MB-231, NH4Cl 1–10 mM, data not shown): did not rescue their growth | Duplication time (SiHa cells; +5 mM NH4Cl): 51 ± 4 h | Duplication time (SiHa cells; +10 mM NH4Cl): 55 ± 5 h | Maximal cellular densities (SiHa cells; +5 mM NH4Cl): 86 ± 7 ×10^3 | Maximal cellular densities (SiHa cells; +10 mM NH4Cl): 82 ± 5 ×10^3 | Duplication time (Colo 205 cells; +5 mM NH4Cl): 48 ± 2 h | Duplication time (Colo 205 cells; +10 mM NH4Cl): 44 ± 4 h | Maximal cellular densities (Colo 205 cells; Colo 205, +5 mM NH4Cl): 68 ± 6 ×10^3 | Maximal cellular densities (Colo 205 cells; Colo 205, +10 mM NH4Cl): 66 ± 6 ×10^3 | Duplication time (HCT116 cells; +5 mM NH4Cl): 45 ± 1 h | Duplication time (HCT116 cells; +10 mM NH4Cl): 39 ± 2 h | Maximal cellular densities (HCT116 cells; HCT116, +5 mM NH4Cl): 76 ± 11 ×10^3 | Maximal cellular densities (HCT116 cells; HCT116, +10 mM NH4Cl): 80 ± 13 ×10^3 | Duplication time (MCF-7 cells [3]; +5 mM NH4Cl): 37 ± 2 h | Duplication time (MCF-7 cells [3]; +10 mM NH4Cl): 45 ± 6 h | Maximal cellular densities (MCF-7 cells [3]; MCF-7, +5 mM NH4Cl): 72 ± 6 ×10^3 | Maximal cellular densities (MCF-7 cells [3]; MCF-7, +10 mM NH4Cl): 76 ± 5 ×10^3 | K0.5 for NH4+ (GDH in HepM and RLM; Hill equation, HepM and RLM, summary): over 20 mM | Km (GDH in HepM and RLM; MWC equation, pH 7.5, summary of Table 3, read-out: Km for ammonium): ~9 mM | reported K0.5 for ammonium (GDH): 15 to 60 mM | Change of total GDH activity [4]: did not alter the total GDH activity or induced a slight (~20%) decrease | MCTS growth (diameter) (HeLa MCTS; 5 and 10 mM ammonium): inhibited | MCTS growth (diameter) (HeLa MCTS; ammonium supplementation): did not stimulate growth | Duplication time (A549 cells; +5 mM NH4Cl): 20 ± 2 h | Duplication time (A549 cells; +10 mM NH4Cl): 17 ± 3 h | Maximal cellular densities (A549 cells; A549, +5 mM NH4Cl): 49 ± 4 ×10^3 | Maximal cellular densities (A549 cells; A549, +10 mM NH4Cl): 56 ± 2 ×10^3 | Duplication time (PC3 cells; PC3, 2-D culture, +10 mM NH4Cl, n = 3): 26 ± 1 h | Maximal cellular densities (PC3 cells; PC3, +5 mM NH4Cl): 136 ± 2 ×10^3 | Maximal cellular densities (PC3 cells; PC3, +10 mM NH4Cl): 141 ± 1.4 ×10^3
